# “Also recorded” adds a separate entry of the source.
# Legend:
# [1] = system: sigma binding sites; experiment: sigma binding site inhibition: displacement of radiolabelled haldol; settings: for binding to the sigma binding site (in words): hydrochloride
# Experimental: (§1) The compound prepared in Example 1 was tested for sigma binding site inhibition in comparison with Haldol, a knows selective receptor for sigma binding sites. In particular, a radioligand of haldol was bound to sigma binding sites to provide radio labeled ligands at sigma binding receptor sites of tissue. In the tests, the compound of Example 1 was then added to the cell system to see how successfully it displaced the radioactive ligands at the sigma binding site. The higher the percentage of radio ligand displaced, the greater the percentage of specific binding at the sigma sites.
# The compound of Example 2 was tested in a similar fashion to that previously described in order to test comparison with Haldol or sigma binding site activity.
# [2] = system: Dopamine 2; experiment: Dopamine 2 binding, [^3 H]-Sulpiride; settings: for Percent Inhibition: Average, N = 2; for Percent Binding: Table 6 (head from Table 5)
# Source text: (§2) Any number for a psychoactive drug over 50% is considered highly significant. By way of example, the following Table 2 illustrates a percentage of specific binding for certain known psychoactives capable of binding at other binding sites which are responsible for the undesirable side effects often associated with psychoactive agents.
# [3] = system: PCP; experiment: PCP site binding, [^3 H]-TCP; settings: for Percent Inhibition / Percent Binding: [^3 H]-TCP; for Percent Inhibition: Average, N = 2; for Percent Binding: Table 6 (head from Table 5)
# Source text: as §2
# [^3 HTCP is a PCP derivative which selectively labels PCP site; PCP i
# [4] = system: dopaminergic receptors; experiment: binding at dopaminergic receptors (summary of dopamine 1 and 2 binding)
# Source text: as §2
# [5] = system: sigma binding sites; settings: background; cited from earlier work
# [6] = system: sigma; experiment: sigma binding capability, [^3 H]-DTG; settings: for Percent Binding: [^3 H]-DTG
# Experimental: as §1, with “In particular, a radioligand of haldol was bound to sigma binding sites to provide radio labeled ligands at sigma binding receptor sites of tissue.” left out
# The following table illustrates testing of sigma binding capability of bromhexine. Again, the test protocol and procedure were as previously described.
# [7] = system: Dopamine 1; experiment: Dopamine 1 binding, [^3 H]-SCH 23390; settings: for Percent Binding: Table 6 (head from Table 5); for Percent Inhibition: Average, N = 2
# Source text: as §2
compound,measurement,setting,value
"CCN(CCc1ccccc1)C1CCCCC1.Cl [Example 2, N-cyclohexyl-N-ethyl 2-phenylethylamine hydrochloride]",% Displaced Haldol,"[1]; Table 3, 10^-5 M, 10 µM",107.6%
same,% Sigma Site Binding,"[1]; Table 3, 10^-5 M, 10 µM",-7.6%
same,VERIFICATION % Displaced Haldol,"[1]; Table 3, 10^-5 M, 10 µM",91.7%
same,VERIFICATION % Sigma Site Binding,"[1]; Table 3, 10^-5 M, 10 µM",8.3%
same,% Displaced Haldol,"[1]; Table 3, 10^-7 M, 0.1 µM",84.7%
same,% Sigma Site Binding,"[1]; Table 3, 10^-7 M, 0.1 µM",15.3%
same,VERIFICATION % Displaced Haldol,"[1]; Table 3, 10^-7 M, 0.1 µM",69.0%
same,VERIFICATION % Sigma Site Binding,"[1]; Table 3, 10^-7 M, 0.1 µM",31.0%
same,% Displaced Haldol,"[1]; Table 3, 10^-9 M, 0.001 µM",43.2%
same,% Sigma Site Binding,"[1]; Table 3, 10^-9 M, 0.001 µM",56.8%
same,VERIFICATION % Displaced Haldol,"[1]; Table 3, 10^-9 M, 0.001 µM",33.9%
same,VERIFICATION % Sigma Site Binding,"[1]; Table 3, 10^-9 M, 0.001 µM",66.1%
same,binding to the sigma binding site (in words),[1],binds selectively to the sigma and PCP binding sites
same,binding to the sigma binding site (in words),[1]; listed as N-cyclohexyl-N-ethyl 2-phenylethylamine,high degree of active sigma binding capability
same,Percent Inhibition,[2]; 10^-5 M,47.2%
same,Percent Inhibition,[2]; 10^-7 M,7.8%
same,Percent Inhibition,[2]; 10^-9 M,5.9%
same,binding to PCP sites (in words),[3],binds selectively to the sigma and PCP binding sites
same,Percent Inhibition,[3]; 10^-5 M,87.7%
same,Percent Inhibition,[3]; 10^-7 M,21.0%
same,Percent Inhibition,[3]; 10^-9 M,11.1%
same,binding to dopaminergic sites (in words),[4],only very weakly binds to the dopaminergic site
"c1ccc(C2(N3CCCCC3)CCCCC2)cc1 [PCP, phencyclidine]",affinity for sigma binding sites (in words),[5],also bind at this site
"CN(Cc1cc(Br)cc(Br)c1N)C1CCCCC1 [bromhexine, reference compound]",Percent Binding,"[6]; 10^-5 M, 10 µM",90.8%
same,Percent Binding,"[6]; 10^-7 M, 0.1 µM",45.1%
same,Percent Binding,"[6]; 10^-9 M, 0.001 µM",24.8%
same,sigma binding capability (in words),[6]; bromhexine,bind to the sigma site; also recorded: high degree of active sigma binding capability
same,Percent Binding,"[7]; 10^-5 M, 10 µM",17.5%
same,Percent Binding,"[7]; 10^-7 M, 0.1 µM",10.8%
same,Percent Binding,"[7]; 10^-9 M, 0.001 µM",3.9%
same,Percent Binding,"[2]; 10^-5 M, 10 µM",11.9%
same,Percent Binding,"[2]; 10^-7 M, 0.1 µM",4.5%
same,Percent Binding,"[2]; 10^-9 M, 0.001 µM",5.6%
same,binding to PCP sites (in words),[3],negligible
same,Percent Binding,"[3]; 10^-5 M, 10 µM",-2.5%
same,Percent Binding,"[3]; 10^-7 M, 0.1 µM",0.2%
same,Percent Binding,"[3]; 10^-9 M, 0.001 µM",-13.6%
same,binding to dopaminergic sites (in words),[4],negligible
O=C(CCCN1CCC(O)(c2ccc(Cl)cc2)CC1)c1ccc(F)cc1 [haloperidol],affinity for sigma binding sites (in words),[5],high affinity
"CCN(Cc1ccccc1)C1CCCCC1.Cl [Example 1, N-cyclohexyl-N-ethylbenzylamine hydrochloride]",% Displaced Haldol,"[1]; Table 1, 10^-5 M, 10 µM",96.0%
same,% Sigma Site Binding,"[1]; Table 1, 10^-5 M, 10 µM",4.0%
same,VERIFICATION % Displaced Haldol,"[1]; Table 1, 10^-5 M, 10 µM",86.7%
same,VERIFICATION % Sigma Site Binding,"[1]; Table 1, 10^-5 M, 10 µM",13.3%
same,% Displaced Haldol,"[1]; Table 1, 10^-7 M, 0.1 µM",99.1%
same,% Sigma Site Binding,"[1]; Table 1, 10^-7 M, 0.1 µM",0.9%
same,VERIFICATION % Displaced Haldol,"[1]; Table 1, 10^-7 M, 0.1 µM",61.1%
same,VERIFICATION % Sigma Site Binding,"[1]; Table 1, 10^-7 M, 0.1 µM",38.9%
same,% Displaced Haldol,"[1]; Table 1, 10^-9 M, 0.001 µM",27.5%
same,% Sigma Site Binding,"[1]; Table 1, 10^-9 M, 0.001 µM",72.5%
same,VERIFICATION % Displaced Haldol,"[1]; Table 1, 10^-9 M, 0.001 µM",22.5%
same,VERIFICATION % Sigma Site Binding,"[1]; Table 1, 10^-9 M, 0.001 µM",77.5%
same,binding to the sigma binding site (in words),[1],selectively binds to the sigma binding site
same,binding to the sigma binding site (in words),[1]; listed as N-cyclohexyl-N-ethyl 2-benzylamine,high degree of active sigma binding capability
same,Percent Inhibition,[7]; 10^-5 M,10.7%
same,Percent Inhibition,[7]; 10^-7 M,5.9%
same,Percent Inhibition,[7]; 10^-9 M,3.2%
same,Percent Inhibition,[2]; 10^-5 M,14.8%
same,Percent Inhibition,[2]; 10^-7 M,-1.5%
same,Percent Inhibition,[2]; 10^-9 M,-1.4%
same,Percent Inhibition,[3]; 10^-5 M,25.1%
same,Percent Inhibition,[3]; 10^-7 M,7.1%
same,Percent Inhibition,[3]; 10^-9 M,9.4%
same,binding to dopaminergic sites (in words),[4],excluded from binding at dopaminergic receptors

# Source: patent US5256698A, “Treatment of psychosis using cyclohexyl-phenyl-lower alkyl amine derivatives” (University of Iowa Research Foundation, priority 1990, dated 1993)
